Like-named read-outs stand apart in the source and are kept apart here.
Tests used:
[1] = 37 °C, cited from earlier work
[2] = Contrast-enhanced magnetic resonance angiography (CE-MRA) at 1.5 T, intraindividual comparison; format: in vivo, New Zealand white rabbits; details: rabbits, 25 μmol Gd/kg bw versus standard dose 100 μmol/kg and example compound 6 at 25 μmol/kg
Experimental: Reference compound 1 (Gadovist®), as an approved representative of the Gadolinium-based MRI contrast agents, was used in both dose protocols (100 μmol Gd/kg bw and 25 μmol Gd/kg bw) and compared to example compound 6 (25 μmol Gd/kg bw).
The contrast-enhanced magnetic resonance angiography study was performed at a clinical 1.5 T Scanner (Magnetom Avanto Fit, Siemens Healthcare, Erlangen, Germany). For optimal signal exploitation, a spine in combination with a body-flex coil was used for the data acquisition. The study was performed on male New Zealand white rabbits (weight 3.6-3.9 kg, n=4, Charles River Kisslegg). The animals received all 3 contrast protocols within one imaging session. The order of the contrast protocols was randomized between the animals.
All animals are initially anesthetized using a body weight-adjusted intramuscular injection of a mixture (1+2) of xylazine hydrochloride (20 mg/mL, Rompun 2%, Bayer Vital GmbH, Leverkusen, Germany) and ketamine hydrochloride (100 mg/mL, Ketavet, Pfizer, Pharmacia GmbH, Berlin, Germany) using 1 mL/kg body weight. The continuous anesthesia of the intubated animals (endotracheal tube, Rueschelit Super Safe Clear, cuff 3.0 mm, Willy Ruesch A G, Kernen, Germany) is achieved by the intravenous injection of 0.9 mg propofol per kilogram per hour (10 mg/mL, Propofol-Lipuro 1%, B. Braun Melsungen A G, Melsungen, Germany). The continuous intravenous injection is performed using a MR infusion system (Continuum MR Infusion System, Medrad Europe B. V., A E Beek, Germany). The tracheal respiration (SV 900C, Maquet, Rastatt, Germany) is performed with 55% oxygen, forty breaths per minute, and a breathing volume of 4 mL per kilogram body weight per minute.
Based on a localizer MRI sequence oriented in coronal, axial, and sagittal directions the anatomic course of the aorta is acquired. A small intravenous test bolus (0.2 mL, Reference compound 1 followed by 1.3 mL saline) was administered to determine the time to peak interval (descending aorta) using a test bolus sequence. The MRA delay time between the start of the contrast injection and the start of image acquisition was calculated by subtracting the time to k-space center from the time to peak interval. For MRA a 3D FLASH sequence (TR=3.3 ms, TE=1.2 ms, flip=25°) was acquired before and after injection of the contrast agent considering the delay time. Both measurements were performed within expiratory breath hold. The time interval for the intraindividual comparison between the different contrast agent applications was twenty to thirty minutes.
Quantitative image evaluation was performed on the subtraction images (post contrast—baseline). […]

[3] = Pharmacokinetic parameters of blood plasma levels after i.v. bolus in male rats (three compartment model); format: in vivo, rats (Han-Wistar); details: i.v. bolus 0.1 mmol Gd/kg, mean, n=3
Experimental: Pharmacokinetic parameters of Example 6 were determined in male rats (Han-Wistar, 235-270 g, n=3). The compound was administered as a sterile aqueous solution (53.8 mmol Gd/L) as a bolus in the tail vein of the animals. The dose was 0.1 mmol Gd/kg. Blood was sampled 1, 3, 5, 10, 15, 30, 60, 90, 120, 240, 360, 480, and 1440 min post injection and the Gd concentration was determined by Inductively Coupled Plasma Mass Spectrometry (ICP-MS Agilent 7500a, Waldbronn, Germany). The blood level was converted to plasma concentrations by division by 0.625 (plasma fraction of rat blood, assuming strictly extracellular distribution). As a control, 3 animals (Han-Wistar, 248-289 g), were treated in the same way with Reference Compound 1 (Gadovist®), a low molecular weight contrast agent.
The fit of the obtained data to a three compartment model (Phoenix-WinNonlin) yielded the pharmacokinetic parameters which are shown in Table 3.

[4] = Dynamic CT diffusion phantom study (dialysis cassette in fetal bovine serum); format: physicochemical; details: dialysis cassette 20,000 MWCO, 20 mmol Gd/L, CT signal over 30 h
Experimental: The described dynamic CT diffusion study compares the ability of Examples 1-10 and Reference compounds 1 and 4 to pass a semipermeable membrane (20 kDa). A 128-row clinical CT device (SOMATOM Definition, 128; Siemens Healthcare, Forchheim, Germany) was used to monitor the diffusion through a semipermeable membrane at 100 kV and 104 mA. Single measurements were performed at 0 min, 1 min, 2 min, 3 min, 5 min, 10 min, 15 min, 20 min, 30 min, 45 min, 60 min, 2 h, 3 h, 5 h, 7 h, 22 h, 24 h, 30 h after placing the dialysis cassette (Slide-A-Lyser, 20,000 MWCO, 0.1-0.5 mL Capacity, Thermo Scientific, Roskilde, Denmark) filled with contrast agent in fetal bovine serum solution (FBS, Sigma, F7524). The images were reconstructed with a slice thickness of 2.4 mm and a B30 convolution kernel. The used concentration in the dialysis cassettes of the investigated Examples 1-10 and Reference compounds 1 and 4 was 20 mmol Gd/L.
The imaging results for all investigated Examples and the Reference compounds 1 and 4 for the time points 0 min and 30 h after placing the cassettes in the FBS solution are depicted in FIG. 1. For image analysis, regions of interest were manually drawn on 1 centrally located slice for each time point (a representative measurement region is indicated in FIG. 1: Image RC1).

[5] = Relaxivity measurements at 3.0 T (whole body MRI scanner, 37 °C) in water and human plasma; format: physicochemical; details: normalized to Gd, average ± standard deviation
Experimental: Relaxivity Measurements at 3.0 T
Relaxivity measurements at 3.0 T were performed with a whole body 3.0 T MRI Scanner (Philips Intera, Philips Healthcare, Hamburg, Germany) using a knee-coil (SENSE-Knee-8, Philips Healthcare, Hamburg, Germany). The sample tubes (CryoTubetm Vials, Thermo Scientific 1.8 mL, Roskilde, Denmark) were positioned in 3 rows of 4 and 5 tubes in a plastic holder in a box filled with water. The temperature was adjusted to 37° C. For the MRI sequence the shortest possible echo-time (TE) with 7.46 milliseconds was used. The inversion times were chosen to optimize the sequence to measure T1 values corresponding to the estimated T1 range of all relaxation times of contrast media containing solutions. The following inversion times (TIs) were applied: 50, 100, 150, 200, 300, 500, 700, 1000, 1400, 2100, 3200, and 4500 milliseconds. The sequence was run with a constant relaxation delay of 3.4 seconds after the registration of the last echo (variable TR in the range from 3450 to 7900 milliseconds). For details of the fit procedure, see Rohrer et. al. (Invest. Radiol. 2005; 40, 11: 715-724). The experimental matrix of the phantom measurement was 320×320.
The relaxivities were evaluated using three different concentrations of each compound (3 concentrations between 0.05 and 2 mM).
The T1 relaxation times of Example compounds were measured in water and human plasma. Human plasma preparation: For each experiment fresh blood was taken from a volunteer using 10 mL citrate-tubes (Sarstedt S-Monovette 02.1067.001, 10 mL, Citrate). The 10 mL citrate-tubes were carefully inverted 10 times to mix blood and anticoagulant and centrifuged for 15 minutes at 1811 g at room temperature (Eppendorf, Centrifuge 5810R).
The relaxivities ri (where i=1, 2) were calculated on the basis of the measured relaxation rates Ri in water and plasma: Ri=Ri(0)+ri[CGd], where Ri(0) represent the relaxation rate of the respective solvent and CGd the concentration of the compound normalized to the Gadolinium (Table 2).

[6] = Relaxivity measurements at 1.4 T (MiniSpec mq60, 60 MHz, 37 °C) in water and human plasma; format: physicochemical; details: 1.41 T, normalized to Gd
Experimental: Relaxivity Measurements at 1.4 T
Relaxivity measurements at 1.41 T were performed using a MiniSpec mq60 spectrometer (Bruker Analytik, Karlsruhe, Germany) operating at a resonance frequency of 60 MHz and a temperature of 37° C. The T1 relaxation times were determined using the standard inversion recovery (IR) method with a fixed relaxation delay of at least 5×T1. The variable inversion time (TI) was calculated automatically by the standard software of the MiniSpec mq60 (8 steps). The T2 measurements were done by using a Carr-Purcell-Meiboom-Gill (CPMG) pulse sequence, applying a relaxation delay of at least 5×T1.
Each relaxivity measurement was performed using three different Gd concentrations (3 concentrations between 0.05 and 2 mM). The T1 and T2 relaxation times of the example compounds 1 to 10 were measured in different media for example in water and human plasma. Human plasma preparation: For each experiment fresh blood was taken from a volunteer using 10 mL citrate-tubes (Sarstedt S-Monovette 02.1067.001, 10 mL, Citrate). The 10 mL citrate-tubes were carefully inverted 10 times to mix blood and anticoagulant and centrifuged for 15 minutes at 1811 g at room temperature (Eppendorf, Centrifuge 5810R).
The relaxivities ri (where i=1, 2) were calculated on the basis of the measured relaxation rates Ri in water and plasma: Ri=Ri(0)+ri[CGd], where Ri(0) represent the relaxation rate of the respective solvent and CGd the concentration of the compound normalized to the Gadolinium. The Gadolinium concentrations of the investigated solutions were verified by Inductively Coupled Plasma Mass Spectrometry (ICP-MS Agilent 7500a, Waldbronn, Germany).

[7] = Water solubility (exploratory, 10 mM Tris-HCl, 20 °C); format: physicochemical; details: water (10 mM Tris-HCl buffer), pH 7.4
Experimental: The exploratory water solubilities of the compounds were determined at room temperature (20° C.) in 0.5 mL buffer solution (10 mM Tris-HCl) in the microcentrifuge tubes (Eppendorf, 2.0 mL safe-lock caps). The solid compounds were added stepwise to the buffer solution. The suspension was mixed using a shaker (Heidolph Reax 2000) and treated 5 min in an ultrasound bath (Bandelin, Sonorex Super RK255H).

SMILES	r1 human plasma ([1]; 1.5 T, bovine plasma instead of human plasma, from Rohrer et al.) [L/mmol/s]	r1 water ([1]; 1.5 T, from Rohrer et al.) [L/mmol/s]	r1 human plasma ([1]; 3.0 T, plasma, reference compounds marked ^ (Rohrer et al., bovine plasma per Table 1 footnote)) [L/mmol/s]	r1 water ([1]; 3.0 T, reference compounds marked ^ (Rohrer et al. per Table 1 footnote)) [L/mmol/s]	vascular contrast at the reduced dose (25 μmol/kg) of the reference compound [2]	AUC∞ Area under the curve (to infinity) [3] [µmol·min/L]	MRT Mean residence time [3] [min]	V1 + V2 Volume, compartments V1 + V2 [3] [L/kg]	V2 Volume, compartment V2 [3] [L/kg]	Vd, ss Volume of distribution at steady state [3] [L/kg]	t½ α Half-life, compartment V1 [3] [min]	t½ β Half-life, compartment V2 [3] [min]	t½ γ Half-life, compartment V3 [3] [min]	Diffusion half-live (20 kDa) [4] [h]	r1 human plasma ([5]; human plasma) [L/mmol/s]	r1 water ([5]; water) [L/mmol/s]	r1 human plasma ([6]; human plasma) [L/mmol/s]	r1 water ([6]; water) [L/mmol/s]	Solubility [7] [mg/100 mL]
O=C([O-])CN1CCN(CC(=O)[O-])CCN([C@H](CO)[C@H](O)CO)CCN(CC(=O)[O-])CC1.[Gd+3] (racemic) [RC1, gadobutrol, reference compound]	5.2	3.3	5.0 ± 0.3	3.2 ± 0.3	considerable lower	11334	40.5	0.11	0.16	0.26	1.80	22.1	780	2.1	–	–	–	–	–
O=C([O-])CN1CCN(CC(=O)[O-])CCN(CC(=O)N(CC(=O)NCC(CNC(=O)CN(C(=O)CN2CCN(CC(=O)[O-])CCN(CC(=O)[O-])CCN(CC(=O)[O-])CC2)C2CCCC2)(CNC(=O)CN(C(=O)CN2CCN(CC(=O)[O-])CCN(CC(=O)[O-])CCN(CC(=O)[O-])CC2)C2CCCC2)CNC(=O)CN(C(=O)CN2CCN(CC(=O)[O-])CCN(CC(=O)[O-])CCN(CC(=O)[O-])CC2)C2CCCC2)C2CCCC2)CCN(CC(=O)[O-])CC1.[Gd+3].[Gd+3].[Gd+3].[Gd+3] [Example 8, Tetragadolinium [4,10-bis(carboxylatomethyl)-7-{3,13-dicyclopentyl-8,8-bis({[(cyclopentyl{[4,7,10-tris(carboxylatomethyl)-1,4,7,10-tetraazacyclododecan-1-yl]acetyl}-amino)acetyl]amino}methyl)-2,5,11,14-tetraoxo-15-[4,7,10-tris(carboxylatomethyl)-1,4,7,10-tetraazacyclododecan-1-yl]-3,6,10,13-tetraazapentadec-1-yl}-1,4,7,10-tetra-azacyclododecan-1-yl]acetate]	–	–	–	–	–	–	–	–	–	–	–	–	–	10.5	12.0 ± 0.4	10.7 ± 0.1	14.1	11.7	>1000

— patent US10975060B2, “High relaxivity gadolinium chelate compounds for use in magnetic resonance imaging” (BAYER PHARMA AKTIENGESELLSCHAFT, priority 2016, dated 2021)
